These results are taken from ChEMBL document CHEMBL4483862, “Open-source discovery of chemical leads for next-generation chemoprotective antimalarials” (2018).

This test relates to Plasmodium berghei. Put plainly: Luciferase/luciferin-expressing antifolate-resistant parasites were used to infect a culture of HepG2 cells that were pre-incubated with compounds. Infected hepatocytes emit light due to the luciferase reaction. Assay results are presented as the percent inhibition of light emission compared to control. […]. Format: functional. The settings on record: sporozoite; for IC90: read-out: LUCIFERASE INFECTION ASSAY - IC90.

What is called IC50 is the concentration that gives 50% inhibition. A word on the IC90: it is the point of the concentration-response curve where the effect stands at 90%. For the molecule `O=C(c1cccc(C(F)(F)F)c1)N1CCc2c([nH]c3ccccc23)C1C(F)(F)F` (stereo unspecified), the IC90 is above 8 µM. For the setting “FFLUC_HILL_SLOPE 6.83, FFLUC_R_SQUARED 0.392, HEPG2TOX_HILL_SLOPE 7.06, HEPG2TOX_R_SQUARED 0.861, PBLUC_HILL_SLOPE 3.46, PBLUC_R_SQUARED 0.38, read-out: LUCIFERASE INFECTION ASSAY - IC50”, the IC50 was 4.59 µM.
On to `c1ccc(-c2nc(-c3ccccc3)c(-c3ccccc3)o2)cc1`, for which the IC90 was above 11.1 µM. Also, under “FFLUC_HILL_SLOPE 6.72, FFLUC_R_SQUARED 0.191, read-out: LUCIFERASE INFECTION ASSAY - IC50”, the IC50 is above 11.1 µM.
Consider `CNC(=O)c1ccc(CN(Cc2ccco2)C(=O)Cc2ccc(-c3ccccc3)cc2)cc1`, for which the IC90 was above 10 µM. Also, the IC50 (FFLUC_HILL_SLOPE 7.09, FFLUC_R_SQUARED 0.0104, PBLUC_HILL_SLOPE 1.93, PBLUC_R_SQUARED 0.808, read-out: LUCIFERASE INFECTION ASSAY - IC50) is 3.68 µM.
On to `CC(=O)c1ccc(NC(=O)N2[C@@H]3CC[C@@H](C3)[C@H]2c2nc3cccc(OCc4ccc(F)cc4)c3[nH]2)cc1`, for which the IC90 was above 10 µM. For the same molecule, the IC50 (FFLUC_HILL_SLOPE 7.32, FFLUC_R_SQUARED 0.306, PBLUC_HILL_SLOPE 12.2, PBLUC_R_SQUARED 0.357, read-out: LUCIFERASE INFECTION ASSAY - IC50) was 9.72 µM.
Take `O=C(Nc1ncccc1O)c1ccc(N2CCOCC2)nc1`: the IC90 came to 4.08 µM. The IC50 (FFLUC_HILL_SLOPE 6.17, FFLUC_R_SQUARED 0.111, PBLUC_HILL_SLOPE 1.25, PBLUC_R_SQUARED 0.907, read-out: LUCIFERASE INFECTION ASSAY - IC50) was found to be 0.705 µM.
For the molecule `Cc1cccc(C)c1N(C(=O)CC(c1ccccc1)c1ccccc1)c1nc2ccccc2s1`, the IC90 is above 10 µM. The IC50 (FFLUC_HILL_SLOPE 6.55, FFLUC_R_SQUARED 0.86, PBLUC_HILL_SLOPE 3.66, PBLUC_R_SQUARED 0.235, read-out: LUCIFERASE INFECTION ASSAY - IC50) is 7.33 µM.
Take `COc1ccc(C(=O)/C(=C\c2ccc([N+](=O)[O-])cc2)c2nc3ccccc3[nH]2)cc1`: the IC90 was 9.32 µM. The IC50 (FFLUC_HILL_SLOPE 7.19, FFLUC_R_SQUARED 0.76, HEPG2TOX_HILL_SLOPE 6.54, HEPG2TOX_R_SQUARED 0.945, PBLUC_HILL_SLOPE 13.7, PBLUC_R_SQUARED 0.214, read-out: LUCIFERASE INFECTION ASSAY - IC50) amounted to 7.93 µM.
Turning to `CC(Nc1ccc(Oc2ccc(Br)cc2)cc1)C(=O)Nc1ccc(S(N)(=O)=O)cc1` (stereo unspecified), the IC90 was above 10 µM. Further, the IC50 (FFLUC_HILL_SLOPE 6.08, FFLUC_R_SQUARED 0.0812, PBLUC_HILL_SLOPE 2.58, PBLUC_R_SQUARED 0.863, read-out: LUCIFERASE INFECTION ASSAY - IC50) stood at 4.82 µM.
For `CN(C)c1ccc(-c2cnc3cnc(-c4cnn(Cc5ccccc5)c4)cn23)cc1`, the IC90 is above 8.37 µM. Further, the IC50 (FFLUC_HILL_SLOPE 6.21, FFLUC_R_SQUARED 0.0566, PBLUC_HILL_SLOPE 1.47, PBLUC_R_SQUARED 0.566, read-out: LUCIFERASE INFECTION ASSAY - IC50) turned out to be 3.91 µM.
In the case of `COc1ccc(NS(=O)(=O)c2cccc(C(=O)N/N=C(\c3ccccc3)c3ccccn3)c2)cc1`, the IC90 turned out to be 6.62 µM. The IC50 (FFLUC_HILL_SLOPE 6.58, FFLUC_R_SQUARED 0.0766, HEPG2TOX_HILL_SLOPE 0.953, HEPG2TOX_R_SQUARED 0.956, PBLUC_HILL_SLOPE 1.34, PBLUC_R_SQUARED 0.562, read-out: LUCIFERASE INFECTION ASSAY - IC50) turned out to be 1.29 µM.
Turning to `O=C(Nc1ccccc1)c1ccc(CN2C(=O)NC(c3ccccc3)(c3ccccc3)C2=O)cc1`, the IC90 was 3.94 µM. The IC50 (FFLUC_HILL_SLOPE 6.57, FFLUC_R_SQUARED 0.404, PBLUC_HILL_SLOPE 14.6, PBLUC_R_SQUARED 0.481, read-out: LUCIFERASE INFECTION ASSAY - IC50) was 3.39 µM.
Regarding `C#CCSc1nc2ccc(Cl)cc2c(=O)n1-c1cc(OC(C)C)c(Cl)cc1Cl`, the 90% effect concentration (IC90) was above 7.27 µM. Also, under “FFLUC_HILL_SLOPE 5.89, FFLUC_R_SQUARED 0.859, HEPG2TOX_HILL_SLOPE 0.407, HEPG2TOX_R_SQUARED 0.572, PBLUC_HILL_SLOPE 3.96, PBLUC_R_SQUARED 0.341, read-out: LUCIFERASE INFECTION ASSAY - IC50”, the IC50 turned out to be 5.27 µM.
Regarding `CC(=O)N1CCN(c2nc(CC(C)C)c3c(c2C#N)CCCC3)CC1`, the IC90 is above 9.69 µM. Further, the IC50 (FFLUC_HILL_SLOPE 6.37, FFLUC_R_SQUARED 0.032, PBLUC_HILL_SLOPE 12.2, PBLUC_R_SQUARED 0.0332, read-out: LUCIFERASE INFECTION ASSAY - IC50) is 8.99 µM.
In the case of `Cc1[nH]ncc1CCCNc1nc(C(F)(F)F)nc2ccccc12`, the IC90 is above 10 µM. Besides, the IC50 (FFLUC_HILL_SLOPE 6.95, FFLUC_R_SQUARED 0.127, read-out: LUCIFERASE INFECTION ASSAY - IC50) was above 10 µM.
Turning to `COc1ccc(S(=O)(=O)Nc2ccc3c(c2)CS(=O)(=O)C3)cc1`, the IC90 was above 9.34 µM. For the same molecule, the IC50 (FFLUC_HILL_SLOPE 6.24, FFLUC_R_SQUARED 0.631, read-out: LUCIFERASE INFECTION ASSAY - IC50) is above 9.34 µM.
For the molecule `CC(C)n1c(Sc2ncc([N+](=O)[O-])s2)nc2ccccc21`, the IC90 was determined as 4.36 µM. For the same molecule, under “FFLUC_HILL_SLOPE 5.73, FFLUC_R_SQUARED 0.583, HEPG2TOX_HILL_SLOPE 3.25, HEPG2TOX_R_SQUARED 0.992, PBLUC_HILL_SLOPE 9.74, PBLUC_R_SQUARED 0.283, read-out: LUCIFERASE INFECTION ASSAY - IC50”, the IC50 is 3.48 µM.
`CCOC(=O)N1C/C(=C/c2cccc(O)c2)C(=O)/C(=C/c2cccc(O)c2)C1`: the IC90 amounted to 9.23 µM. Further, under “FFLUC_HILL_SLOPE 6.86, FFLUC_R_SQUARED 0.64, HEPG2TOX_HILL_SLOPE 2, HEPG2TOX_R_SQUARED 0.958, PBLUC_HILL_SLOPE 1.44, PBLUC_R_SQUARED 0.817, read-out: LUCIFERASE INFECTION ASSAY - IC50”, the IC50 is 2.02 µM.
Regarding `Cc1ccccc1CN1CCN2C=C(C(=O)Nc3cccc(OC(F)(F)F)c3)OC2=NC1=O`, the IC90 was above 10 µM. In addition, under “FFLUC_HILL_SLOPE 6.71, FFLUC_R_SQUARED 0.0114, read-out: LUCIFERASE INFECTION ASSAY - IC50”, the IC50 was above 10 µM.
As to `CCCOc1cc2cc(C(=O)c3ccccc3O)cnc2cc1OCCC`, the IC90 is 4.78 µM. The IC50 (FFLUC_HILL_SLOPE 5.56, FFLUC_R_SQUARED 0.125, HEPG2TOX_HILL_SLOPE 2.18, HEPG2TOX_R_SQUARED 0.51, PBLUC_HILL_SLOPE 8.83, PBLUC_R_SQUARED 0.576, read-out: LUCIFERASE INFECTION ASSAY - IC50) came out at 3.73 µM.
Take `CSc1nccc(-c2ccc(Cl)cc2)n1`: the concentration for an effect of 90% (IC90) was above 13.9 µM. The IC50 (FFLUC_HILL_SLOPE 5.64, FFLUC_R_SQUARED 0.137, read-out: LUCIFERASE INFECTION ASSAY - IC50) was above 13.9 µM.
As for `Cc1cccc(CNc2nc3cnc(Nc4cccc(O)c4)cc3n2C)c1`, the IC90 was above 10 µM. In addition, the IC50 (FFLUC_HILL_SLOPE 6.96, FFLUC_R_SQUARED 0.0526, HEPG2TOX_HILL_SLOPE 13.6, HEPG2TOX_R_SQUARED 0.973, PBLUC_HILL_SLOPE 10.5, PBLUC_R_SQUARED 0.188, read-out: LUCIFERASE INFECTION ASSAY - IC50) was 8.85 µM.
For `CC(C)c1ccc(-c2cnc3sc(NCc4ccncc4)nn23)cc1`, the IC90 is above 9.44 µM. Moreover, the IC50 (FFLUC_HILL_SLOPE 6.11, FFLUC_R_SQUARED 0.0312, HEPG2TOX_HILL_SLOPE 0.148, HEPG2TOX_R_SQUARED 0.0475, read-out: LUCIFERASE INFECTION ASSAY - IC50) is above 9.44 µM.
With `COC(=O)c1sc(SCCOC(=O)Nc2ccc(OC(F)(F)F)cc2)c2c1CC(C)(C)CC2=O`, the IC90 is above 6.38 µM. Besides, the IC50 (FFLUC_HILL_SLOPE 7.12, FFLUC_R_SQUARED 0.0522, read-out: LUCIFERASE INFECTION ASSAY - IC50) is above 6.38 µM.
For `Cc1ccnc(SCc2cc(=O)n3nc(C)c(-c4ccc(F)cc4)c3[nH]2)n1`, the IC90 was above 8.65 µM. For the same molecule, the IC50 (FFLUC_HILL_SLOPE 7.05, FFLUC_R_SQUARED 0.398, PBLUC_HILL_SLOPE 2.1, PBLUC_R_SQUARED 0.785, read-out: LUCIFERASE INFECTION ASSAY - IC50) is above 8.65 µM.
With `OC1CCC(Nc2nn3c(-c4cccc(OC(F)(F)F)c4)cnc3s2)CC1` (stereo unspecified), the IC90 is above 8.28 µM. Besides, the IC50 (FFLUC_HILL_SLOPE 6.8, FFLUC_R_SQUARED 0.0322, read-out: LUCIFERASE INFECTION ASSAY - IC50) was above 8.28 µM.
As for `CCC(CNC(=O)NCC(=O)Nc1cc(Cl)ccc1Cl)c1ccccc1` (stereo unspecified), the IC90 is above 10 µM. Further, the IC50 (FFLUC_HILL_SLOPE 6.98, FFLUC_R_SQUARED 0.07, read-out: LUCIFERASE INFECTION ASSAY - IC50) was above 10 µM.
With `COC(=O)c1ccccc1SCC(C)=O`, the IC90 is above 14.7 µM. The half-maximal inhibitory concentration (IC50) (FFLUC_HILL_SLOPE 5.95, FFLUC_R_SQUARED 0.0707, PBLUC_HILL_SLOPE 4.71, PBLUC_R_SQUARED 0.0859, read-out: LUCIFERASE INFECTION ASSAY - IC50) was 14 µM.
Turning to `Cc1cc(OCCN(C)C)cc2c1C1CCC3(C)C(=O)CCC3C1C=C2` (stereo unspecified), the IC90 is above 9.34 µM. For the same molecule, where the note is “FFLUC_HILL_SLOPE 6.52, FFLUC_R_SQUARED 0.182, PBLUC_HILL_SLOPE 2.32, PBLUC_R_SQUARED 0.511, read-out: LUCIFERASE INFECTION ASSAY - IC50”, the IC50 was 5.67 µM.
